Measured values as given in patent US5491155A, “Substituted thiadiazoles, compositions containing them and their use as antimicrobial and marine antifouling agents” (The Dow Chemical Company, priority 1994, dated 1996).
In brackets after ≈: the same amount, converted by molar mass. Where two headings read alike, the source gives them in different places.

Columns and labels:
Escherichia coli = assay: MIC in nutrient agar, Escherichia coli; assay type: cell-based, Escherichia coli (ATCC 11229); conditions: Ec, 48 hours, read-out: Minimum Inhibitory Concentration (MIC)
Experimental: (§1) The minimum inhibitory concentration (MIC) for the compounds listed in Table I is determined for bacteria, using nutrient agar, and 7 yeast and fungi, using malt yeast agar. A one percent solution of the test compound is prepared in a mixture of acetone and water.
Nutrient agar is prepared at pH 6.8, representing a neutral medium, and at pH 8.2, representing an alkaline medium. The nutrient agars are prepared by adding 23 g of nutrient agar to one-liter of deionized water. In addition, the alkaline medium is prepared by adjusting a 0.04M solution of N-(tris-(hydroxymethyl)methyl)glycine buffered deionized water with concentrated sodium hydroxide to a pH of 8.5.
(§2) The test tubes containing the agar are cooled in a water bath until the temperature of the agar is 48° C. Then, an appropriate amount of the one percent solution of the test compound is added (except in the controls where no compound is added) to the respective test tubes so that the final concentrations are 500, 250, 100, 50, 25, 10, 2.5, 1.0 and zero parts per million of the test compound in the agar, thus having a known concentration of test compound dispersed therein. The contents of the test tubes are then transferred to respective petri plates. After drying for 24 hours, the petri plates containing nutrient agar are inoculated with bacteria and those containing malt yeast agar are inoculated with yeast and fungi.
The inoculation with bacteria is accomplished by using the following procedure. Twenty-four hour-cultures of each of the bacteria are prepared by incubating the respective bacteria in tubes containing nutrient broth for 24 hours at 30° C. in a shaker. Dilutions of each of the 24 hour-cultures are made so that nine separate suspensions (one for each of the nine test bacteria) are made, each containing 10^8 colony forming units (CFU) per mL of suspension of a particular bacteria. Aliquots of 0.3 mL of each of the bacterial suspensions are used to fill the individual wells of Steer's Replicator. For each microbial suspension, 0.3 mL was used to fill three wells (i.e., three wells of 0.3 mL each) so that for the nine different bacteria, 27 wells are filled. The Steer's Replicator is then used to inoculate both the neutral and alkaline pH nutrient agar petri plates.
The inoculated petri plates are incubated at 30° C. for 48 hours and then read to determine if the test compound which is incorporated into the agar prevented growth of the respective bacteria.
(§3) Table II lists the bacteria, yeast and fungi used in the MIC test described above along with their respective American Type Culture Collection (ATCC) identification numbers.
(§4) In Tables III and IV, the MIC values of the compounds described in Table I as compared to the MIC of a standard commercial preservative (with 1-(3-chloroalkyl)-3,5,7-triaza-1-azoniaadamantane chloride as the active agent and referred to in Tables III and IV as "STANDARD I") are set forth for the bacteria organisms and yeast/fungi organisms which are listed in Table II.

Aureobasidium pullulan = assay: MIC in malt yeast agar, Aureobasidium pullulan; assay type: cell-based, Aureobasidium pullulan (ATCC 16622); conditions: Ap; malt yeast agar; 30° C.; 72 hours for fungi; read-out: Minimum Inhibitory Concentration (MIC)
Experimental: as §1
Malt yeast agar is prepared by adding 3 g yeast extract and 45 g malt agar per liter of deionized water. The specific agar is dispensed in 30 mL aliquots into 25×200 mm test tubes, capped and autoclaved for 15 minutes at 115° C.
as §2
The inoculation with the yeast and fungi is accomplished as follows. Cultures of yeast and fungi are incubated for seven days on malt yeast agar at 30° C. These cultures are used to prepare suspensions by the following procedure. A suspension of each organism is prepared by adding 10 mL of sterile saline and 10 microliters of octylphenoxy polyethoxy ethanol to the agar slant of yeast or fungi. The sterile saline/octylphenoxy polyethoxy ethanol solution is then agitated with a sterile swab to suspend the microorganism grown on the slant. Each resulting suspension is diluted into sterile saline (1 part suspension: 9 parts sterile saline). Aliquots of these dilutions are placed in individual wells of Steer's Replicator and petri plates inoculated as previously described. The petri plates are incubated at 30° C. and read after 48 hours for yeast and 72 hours for fungi.
as §3, §4

MIC (Escherichia coli; pH 6.8, 30° C.) [µg/mL] | MIC (Escherichia coli; pH 8.2, 30° C.) [µg/mL] | MIC (Aureobasidium pullulan) [µg/mL] | Compound
25 (≈ 125 µM) | 50 (≈ 250 µM) | < 1 | N#CSc1nsnc1SC#N [Example 2, Bis(thiocyanato)-1,2,5-thiadiazole]
25 (≈ 85.5 µM) | < 10 | < 2.5 | N#CSCSc1nsnc1SCSC#N [Example 4, Bis(thiomethylthiocyanato)-1,2,5-thiadiazole]
